Measurements from PMC9856672, “SGC-CAMKK2-1: A Chemical Probe for CAMKK2” (Cells, 2023).

Legend:
[1] = biological target: T1, CDC2L5 (Homo sapiens, UniProt Q14004); assay: KINOMEscan 1 μM, CDC2L5; assay type: binding; details: 1000 nM; Entrez CDK13; read-out: Percent Control
T1 construct: purchased Eurofins DiscoverX KINOMEscan
Description: (§1) Supplement cells-12-00287-s001.zip/File S2. KinomeScan data for the CAMKK2 probe and negative control.xlsx, sheet "SGC-CAMKK2-1" | column: Percent Control

[2] = biological target: T2, MEK2 (Homo sapiens, UniProt P36507); assay: KINOMEscan 1 μM, MEK2; assay type: binding; details: 1000 nM; Entrez MAP2K2; read-out: Percent Control
T2 construct: purchased Eurofins DiscoverX KINOMEscan
Description: as §1

[3] = biological target: T3, TESK1 (Homo sapiens, UniProt Q15569); assay: DiscoverX KINOMEscan binding assay at 1 μM, TESK1; details: Compound Concentration 1000 nM, read-out: Percent Control
T3 construct: purchased Eurofins DiscoverX KINOMEscan
T3 sequence (Q15569 whole entry): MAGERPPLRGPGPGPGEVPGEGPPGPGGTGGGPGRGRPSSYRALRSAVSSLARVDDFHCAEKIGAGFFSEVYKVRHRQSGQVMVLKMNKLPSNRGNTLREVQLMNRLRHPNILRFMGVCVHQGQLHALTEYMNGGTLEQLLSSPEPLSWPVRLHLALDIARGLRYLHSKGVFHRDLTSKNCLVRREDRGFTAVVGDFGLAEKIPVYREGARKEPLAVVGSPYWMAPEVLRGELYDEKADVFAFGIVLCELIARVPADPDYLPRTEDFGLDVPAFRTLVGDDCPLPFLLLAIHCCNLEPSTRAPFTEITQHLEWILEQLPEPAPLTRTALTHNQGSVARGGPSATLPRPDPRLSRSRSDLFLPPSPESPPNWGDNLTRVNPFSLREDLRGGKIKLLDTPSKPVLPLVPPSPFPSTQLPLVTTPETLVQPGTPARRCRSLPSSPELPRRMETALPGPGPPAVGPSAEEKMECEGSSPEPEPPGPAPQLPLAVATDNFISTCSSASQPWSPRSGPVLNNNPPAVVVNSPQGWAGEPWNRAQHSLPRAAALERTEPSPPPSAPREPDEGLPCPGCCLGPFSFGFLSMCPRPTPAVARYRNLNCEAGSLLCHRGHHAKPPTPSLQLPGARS
Description: as §1

[4] = biological target: T4, SIK (Homo sapiens, UniProt P57059); assay: DiscoverX KINOMEscan binding assay at 1 μM, SIK; details: SIK (SIK1); Compound Concentration 1000 nM; read-out: Percent Control
T4 construct: purchased Eurofins DiscoverX KINOMEscan
Description: as §1

[5] = biological target: T5, RSK1(Kin.Dom.2-C-terminal) (Homo sapiens, UniProt Q15418); assay: KINOMEscan 1 μM, RSK1(Kin.Dom.2-C-terminal); assay type: binding; details: 1000 nM; Entrez RPS6KA1; read-out: Percent Control
T5 construct: RSK1(Kin.Dom.2-C-terminal); purchased Eurofins DiscoverX KINOMEscan
Description: as §1

[6] = biological target: T6, TGFBR2 (Homo sapiens, UniProt P37173); assay: KINOMEscan 1 μM, TGFBR2; assay type: binding; details: 1000 nM; Entrez TGFBR2; read-out: Percent Control
T6 construct: purchased Eurofins DiscoverX KINOMEscan
T6 sequence (P37173 23-567): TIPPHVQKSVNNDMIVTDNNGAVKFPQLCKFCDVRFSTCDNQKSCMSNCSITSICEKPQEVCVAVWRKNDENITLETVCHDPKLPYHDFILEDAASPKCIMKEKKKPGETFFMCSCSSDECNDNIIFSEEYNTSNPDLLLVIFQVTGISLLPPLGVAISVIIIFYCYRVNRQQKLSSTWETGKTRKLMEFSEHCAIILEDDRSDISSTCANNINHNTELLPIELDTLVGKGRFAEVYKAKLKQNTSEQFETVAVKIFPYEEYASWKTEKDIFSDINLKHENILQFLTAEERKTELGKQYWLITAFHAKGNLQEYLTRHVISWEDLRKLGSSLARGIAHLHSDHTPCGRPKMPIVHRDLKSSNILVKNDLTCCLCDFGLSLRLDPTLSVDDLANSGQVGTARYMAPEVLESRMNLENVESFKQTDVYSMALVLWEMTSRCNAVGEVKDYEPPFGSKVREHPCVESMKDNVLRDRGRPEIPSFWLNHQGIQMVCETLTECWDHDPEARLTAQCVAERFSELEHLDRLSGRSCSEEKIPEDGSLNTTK
Description: as §1

[7] = biological target: T7, PIK3CA(M1043I) (Homo sapiens, UniProt P42336, M1043I); assay: DiscoverX KINOMEscan binding assay at 1 μM, PIK3CA(M1043I); details: Compound Concentration 1000 nM, read-out: Percent Control
T7 construct: purchased Eurofins DiscoverX KINOMEscan
Description: as §1

[8] = biological target: T8, TNK1 (Homo sapiens, UniProt Q13470); assay: DiscoverX KINOMEscan binding assay at 1 μM, TNK1; details: Compound Concentration 1000 nM, read-out: Percent Control
T8 construct: purchased Eurofins DiscoverX KINOMEscan
T8 sequence (Q13470 whole entry): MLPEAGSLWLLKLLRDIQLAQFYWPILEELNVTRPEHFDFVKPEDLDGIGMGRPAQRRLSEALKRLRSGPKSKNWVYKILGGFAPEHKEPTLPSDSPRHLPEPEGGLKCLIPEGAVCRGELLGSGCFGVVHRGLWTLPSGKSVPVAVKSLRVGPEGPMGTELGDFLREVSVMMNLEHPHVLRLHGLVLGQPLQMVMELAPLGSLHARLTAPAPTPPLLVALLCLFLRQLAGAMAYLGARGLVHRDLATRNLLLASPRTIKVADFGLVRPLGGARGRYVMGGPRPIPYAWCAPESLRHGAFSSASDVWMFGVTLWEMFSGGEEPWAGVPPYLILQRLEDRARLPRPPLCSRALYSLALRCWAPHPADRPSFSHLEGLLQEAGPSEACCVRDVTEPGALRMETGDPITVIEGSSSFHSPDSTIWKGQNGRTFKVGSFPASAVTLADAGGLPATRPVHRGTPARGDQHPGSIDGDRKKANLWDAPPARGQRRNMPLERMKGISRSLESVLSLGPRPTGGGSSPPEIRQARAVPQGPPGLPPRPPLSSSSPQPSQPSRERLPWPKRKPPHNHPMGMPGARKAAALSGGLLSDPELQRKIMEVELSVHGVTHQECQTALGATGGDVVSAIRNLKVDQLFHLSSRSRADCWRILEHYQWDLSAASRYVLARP
Description: as §1

[9] = biological target: T9, EGFR(L747-E749del, A750P) (Homo sapiens, UniProt P00533, A750P/DEL747-749); assay: KINOMEscan 1 μM, EGFR(L747-E749del, A750P); assay type: binding; details: 1000 nM; Entrez EGFR; read-out: Percent Control
T9 construct: purchased Eurofins DiscoverX KINOMEscan
Description: as §1

[10] = biological target: T10, KIT(V559D,T670I) (Homo sapiens, UniProt P10721, T670I/V559D); assay: KINOMEscan 1 μM, KIT(V559D,T670I); assay type: binding; details: 1000 nM; Entrez KIT; read-out: Percent Control
T10 construct: purchased Eurofins DiscoverX KINOMEscan
Description: as §1

[11] = biological target: T11, DRAK1 (Homo sapiens, UniProt Q9UEE5); assay: KINOMEscan 1 μM, DRAK1; assay type: binding; details: 1000 nM; Entrez STK17A; read-out: Percent Control
T11 construct: purchased Eurofins DiscoverX KINOMEscan
Description: as §1

[12] = biological target: T12, RIOK1 (Homo sapiens, UniProt Q9BRS2); assay: KINOMEscan 1 μM, RIOK1; assay type: binding; details: 1000 nM; Entrez RIOK1; read-out: Percent Control
T12 construct: purchased Eurofins DiscoverX KINOMEscan
Description: as §1

[13] = biological target: T13, TXK (Homo sapiens, UniProt P42681); assay: DiscoverX KINOMEscan binding assay at 1 μM, TXK; details: Compound Concentration 1000 nM, read-out: Percent Control
T13 construct: purchased Eurofins DiscoverX KINOMEscan
Description: as §1

[14] = biological target: T14, ABL1(Q252H)-nonphosphorylated (Homo sapiens, UniProt P00519, Q252H); assay: KINOMEscan 1 μM, ABL1(Q252H)-nonphosphorylated; assay type: binding; details: 1000 nM; Entrez ABL1; read-out: Percent Control
T14 construct: purchased Eurofins DiscoverX KINOMEscan
Description: as §1

[15] = biological target: T15, LIMK1 (Homo sapiens, UniProt P53667); assay: KINOMEscan 1 μM, LIMK1; assay type: binding; details: 1000 nM; Entrez LIMK1; read-out: Percent Control
T15 construct: purchased Eurofins DiscoverX KINOMEscan
T15 sequence (P53667 whole entry): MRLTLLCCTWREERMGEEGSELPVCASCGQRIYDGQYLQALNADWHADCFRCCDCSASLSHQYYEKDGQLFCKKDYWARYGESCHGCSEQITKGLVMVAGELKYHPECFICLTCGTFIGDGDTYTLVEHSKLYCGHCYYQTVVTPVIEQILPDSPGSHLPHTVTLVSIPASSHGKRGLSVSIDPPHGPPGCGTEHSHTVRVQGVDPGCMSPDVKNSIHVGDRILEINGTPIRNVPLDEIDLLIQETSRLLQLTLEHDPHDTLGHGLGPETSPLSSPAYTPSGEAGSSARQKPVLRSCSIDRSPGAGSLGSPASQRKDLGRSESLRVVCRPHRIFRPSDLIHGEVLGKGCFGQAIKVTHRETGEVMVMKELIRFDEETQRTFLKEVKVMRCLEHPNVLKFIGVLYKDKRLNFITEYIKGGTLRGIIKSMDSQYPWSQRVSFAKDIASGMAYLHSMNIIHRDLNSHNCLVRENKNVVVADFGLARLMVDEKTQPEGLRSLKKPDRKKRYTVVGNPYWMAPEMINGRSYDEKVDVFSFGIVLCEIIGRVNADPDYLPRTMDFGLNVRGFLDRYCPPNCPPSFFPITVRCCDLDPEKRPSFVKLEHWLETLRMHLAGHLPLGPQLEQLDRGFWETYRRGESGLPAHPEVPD
Description: as §1

[16] = biological target: T16, MKNK2 (Homo sapiens, UniProt Q9HBH9); assay: KINOMEscan 1 μM, MKNK2; assay type: binding; details: 1000 nM; Entrez MKNK2; read-out: Percent Control
T16 construct: purchased Eurofins DiscoverX KINOMEscan
Description: as §1

[17] = biological target: T17, MAP4K4 (Homo sapiens, UniProt O95819); assay: KINOMEscan 1 μM, MAP4K4; assay type: binding; details: 1000 nM; Entrez MAP4K4; read-out: Percent Control
T17 construct: purchased Eurofins DiscoverX KINOMEscan
Description: as §1

[18] = biological target: T18, PIP5K1C (Homo sapiens, UniProt O60331); assay: KINOMEscan 1 μM, PIP5K1C; assay type: binding; details: 1000 nM; Entrez PIP5K1C; read-out: Percent Control
T18 construct: purchased Eurofins DiscoverX KINOMEscan
Description: as §1

[19] = biological target: T19, TAOK1 (Homo sapiens, UniProt Q7L7X3); assay: KINOMEscan at 1 μM, TAOK1; assay type: binding; details: 1000 nM, read-out: Percent Control
T19 construct: purchased Eurofins DiscoverX KINOMEscan
Description: (§2) Supplement cells-12-00287-s001.zip/File S2. KinomeScan data for the CAMKK2 probe and negative control.xlsx, sheet "SGC-CAMKK2-1N" | column: Percent Control

[20] = biological target: T20, BRSK1 (Homo sapiens, UniProt Q8TDC3); assay: KINOMEscan at 1 μM, BRSK1; assay type: binding; details: 1000 nM, read-out: Percent Control
T20 construct: purchased Eurofins DiscoverX KINOMEscan
T20 sequence (Q8TDC3 whole entry): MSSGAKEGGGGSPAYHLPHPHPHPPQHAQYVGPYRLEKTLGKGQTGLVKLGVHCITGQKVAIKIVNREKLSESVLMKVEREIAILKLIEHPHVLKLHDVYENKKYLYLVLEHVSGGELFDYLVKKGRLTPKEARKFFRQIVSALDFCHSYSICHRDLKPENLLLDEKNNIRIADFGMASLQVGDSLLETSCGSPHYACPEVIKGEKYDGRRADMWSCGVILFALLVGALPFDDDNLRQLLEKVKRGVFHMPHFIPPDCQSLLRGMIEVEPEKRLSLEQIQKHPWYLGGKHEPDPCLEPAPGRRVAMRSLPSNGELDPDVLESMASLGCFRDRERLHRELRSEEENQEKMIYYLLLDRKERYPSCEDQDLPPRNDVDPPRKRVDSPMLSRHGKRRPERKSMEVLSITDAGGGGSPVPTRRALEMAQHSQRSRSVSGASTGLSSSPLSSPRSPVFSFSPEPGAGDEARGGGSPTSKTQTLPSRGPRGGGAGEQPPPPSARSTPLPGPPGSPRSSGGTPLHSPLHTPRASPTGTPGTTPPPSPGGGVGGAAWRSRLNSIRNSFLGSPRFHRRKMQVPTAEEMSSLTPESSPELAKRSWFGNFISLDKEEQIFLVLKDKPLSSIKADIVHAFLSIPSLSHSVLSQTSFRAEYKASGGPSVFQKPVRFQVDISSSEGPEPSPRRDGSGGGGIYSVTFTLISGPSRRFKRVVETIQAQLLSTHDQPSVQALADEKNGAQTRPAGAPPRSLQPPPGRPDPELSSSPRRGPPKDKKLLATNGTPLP
Description: as §2

[21] = biological target: T21, LCK (Homo sapiens, UniProt P06239); assay: KINOMEscan binding assay at 1 μM, LCK; details: Compound Concentration 1000 nM; read-out: Percent Control
T21 construct: purchased Eurofins DiscoverX KINOMEscan
Description: as §2

[22] = biological target: T22, EGFR(L858R,T790M) (Homo sapiens, UniProt P00533, L858R/T790M); assay: KINOMEscan at 1 μM, EGFR(L858R,T790M); assay type: binding; details: 1000 nM, read-out: Percent Control
T22 construct: purchased Eurofins DiscoverX KINOMEscan
Description: as §2

[23] = biological target: T23, DMPK2 (Homo sapiens, UniProt Q6DT37); assay: KINOMEscan at 1 μM, DMPK2; assay type: binding; details: 1000 nM, read-out: Percent Control
T23 construct: purchased Eurofins DiscoverX KINOMEscan
Description: as §2

[24] = biological target: T24, EPHA6 (Homo sapiens, UniProt Q9UF33); assay: KINOMEscan binding assay at 1 μM, EPHA6; details: Compound Concentration 1000 nM; read-out: Percent Control
T24 construct: purchased Eurofins DiscoverX KINOMEscan
T24 sequence (Q9UF33 23-1036): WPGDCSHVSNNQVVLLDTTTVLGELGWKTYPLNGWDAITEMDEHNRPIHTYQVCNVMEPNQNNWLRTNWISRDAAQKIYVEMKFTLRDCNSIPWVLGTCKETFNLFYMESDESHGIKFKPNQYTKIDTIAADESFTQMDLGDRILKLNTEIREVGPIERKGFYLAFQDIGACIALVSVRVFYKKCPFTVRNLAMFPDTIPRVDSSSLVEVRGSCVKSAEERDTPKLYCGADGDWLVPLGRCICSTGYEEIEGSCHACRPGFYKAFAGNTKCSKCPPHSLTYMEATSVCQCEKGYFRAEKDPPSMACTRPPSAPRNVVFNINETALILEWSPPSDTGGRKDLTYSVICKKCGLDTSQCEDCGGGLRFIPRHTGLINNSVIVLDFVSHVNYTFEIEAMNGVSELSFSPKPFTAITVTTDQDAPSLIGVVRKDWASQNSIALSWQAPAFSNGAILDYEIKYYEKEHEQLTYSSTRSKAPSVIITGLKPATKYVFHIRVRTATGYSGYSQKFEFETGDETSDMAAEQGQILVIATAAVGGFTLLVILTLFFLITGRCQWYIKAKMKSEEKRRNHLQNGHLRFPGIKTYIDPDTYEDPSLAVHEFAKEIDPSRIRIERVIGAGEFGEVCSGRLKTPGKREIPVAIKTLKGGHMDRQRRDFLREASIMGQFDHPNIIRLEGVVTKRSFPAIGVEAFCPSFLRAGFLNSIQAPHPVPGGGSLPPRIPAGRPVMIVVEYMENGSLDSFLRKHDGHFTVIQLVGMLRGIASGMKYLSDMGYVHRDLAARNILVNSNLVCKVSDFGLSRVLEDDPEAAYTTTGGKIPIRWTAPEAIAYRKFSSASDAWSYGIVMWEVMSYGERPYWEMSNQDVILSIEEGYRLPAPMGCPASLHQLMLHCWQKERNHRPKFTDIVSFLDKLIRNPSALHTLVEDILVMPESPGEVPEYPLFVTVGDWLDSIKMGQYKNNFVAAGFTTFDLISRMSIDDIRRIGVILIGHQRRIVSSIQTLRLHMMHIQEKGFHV
Description: as §2

[25] = biological target: T25, BUB1 (Homo sapiens, UniProt O43683); assay: KINOMEscan at 1 μM, BUB1; assay type: binding; details: 1000 nM, read-out: Percent Control
T25 construct: purchased Eurofins DiscoverX KINOMEscan
Description: as §2

[26] = biological target: T26, ASK1 (Homo sapiens, UniProt Q99683); assay: KINOMEscan at 1 μM, ASK1; assay type: binding; details: 1000 nM, read-out: Percent Control
T26 construct: purchased Eurofins DiscoverX KINOMEscan
Description: as §2

[27] = biological target: T27, MAP3K1 (Homo sapiens, UniProt Q13233); assay: KINOMEscan at 1 μM, MAP3K1; assay type: binding; details: 1000 nM, read-out: Percent Control
T27 construct: purchased Eurofins DiscoverX KINOMEscan
Description: as §2

[28] = biological target: T28, MKNK1 (Homo sapiens, UniProt Q9BUB5); assay: KINOMEscan at 1 μM, MKNK1; assay type: binding; details: 1000 nM, read-out: Percent Control
T28 construct: purchased Eurofins DiscoverX KINOMEscan
Description: as §2

[29] = biological target: T29, p38-delta (Homo sapiens, UniProt O15264); assay: KINOMEscan at 1 μM, p38-delta; assay type: binding; details: 1000 nM, read-out: Percent Control
T29 construct: purchased Eurofins DiscoverX KINOMEscan
Description: as §2

[30] = biological target: T30, MLK2 (Homo sapiens, UniProt Q02779); assay: KINOMEscan binding assay at 1 μM, MLK2; details: Compound Concentration 1000 nM; read-out: Percent Control
T30 construct: purchased Eurofins DiscoverX KINOMEscan
Description: as §2

[31] = biological target: T31, MARK2 (Homo sapiens, UniProt Q7KZI7); assay: KINOMEscan at 1 μM, MARK2; assay type: binding; details: 1000 nM, read-out: Percent Control
T31 construct: purchased Eurofins DiscoverX KINOMEscan
T31 sequence (Q7KZI7 whole entry): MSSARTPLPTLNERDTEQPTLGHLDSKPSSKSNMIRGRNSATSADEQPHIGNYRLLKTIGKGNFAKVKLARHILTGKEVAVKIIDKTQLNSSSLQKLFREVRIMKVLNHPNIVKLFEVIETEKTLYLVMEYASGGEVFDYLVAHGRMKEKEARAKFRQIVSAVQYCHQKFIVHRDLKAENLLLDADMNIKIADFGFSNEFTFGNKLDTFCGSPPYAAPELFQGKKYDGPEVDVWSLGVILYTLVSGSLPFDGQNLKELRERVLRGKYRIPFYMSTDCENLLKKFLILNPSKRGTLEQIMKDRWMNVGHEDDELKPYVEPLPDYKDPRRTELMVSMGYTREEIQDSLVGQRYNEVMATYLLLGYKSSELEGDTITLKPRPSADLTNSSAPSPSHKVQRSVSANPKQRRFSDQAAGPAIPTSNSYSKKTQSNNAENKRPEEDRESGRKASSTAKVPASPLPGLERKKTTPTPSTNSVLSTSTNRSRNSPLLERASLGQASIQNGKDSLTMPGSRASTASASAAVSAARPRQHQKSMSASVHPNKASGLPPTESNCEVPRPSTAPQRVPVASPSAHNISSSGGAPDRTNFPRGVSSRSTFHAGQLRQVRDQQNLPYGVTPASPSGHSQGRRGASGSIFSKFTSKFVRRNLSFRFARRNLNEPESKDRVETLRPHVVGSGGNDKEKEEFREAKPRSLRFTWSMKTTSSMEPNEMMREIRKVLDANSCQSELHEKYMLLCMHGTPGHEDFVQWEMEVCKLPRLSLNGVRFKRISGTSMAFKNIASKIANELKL
Description: as §2

[32] = biological target: T32, STK16 (Homo sapiens, UniProt O75716); assay: KINOMEscan at 1 μM, STK16; assay type: binding; details: 1000 nM, read-out: Percent Control
T32 construct: purchased Eurofins DiscoverX KINOMEscan
Description: as §2

Structure (SMILES): Cc1cccc(-c2cnc3occ(-c4ccc(C(=O)O)c(C5CCCC5)c4)c3c2)c1 [SGC-CAMKK2-1 (YL-36)]
- remaining binding at 1 µM [1]: 100%
- remaining binding at 1 µM [2]: 100%
- remaining binding at 1 µM [3]: 100%
- remaining binding at 1 µM [4]: 100%
- remaining binding at 1 µM [5]: 80%
- remaining binding at 1 µM [6]: 91%
- remaining binding at 1 µM [7]: 100%
- remaining binding at 1 µM [8]: 100%
- remaining binding at 1 µM [9]: 87%
- remaining binding at 1 µM [10]: 100%
- remaining binding at 1 µM [11]: 100%
- remaining binding at 1 µM [12]: 92%
- remaining binding at 1 µM [13]: 100%
- remaining binding at 1 µM [14]: 100%
- remaining binding at 1 µM [15]: 99%
- remaining binding at 1 µM [16]: 100%
- remaining binding at 1 µM [17]: 85%
- remaining binding at 1 µM [18]: 99%

Structure (SMILES): O=C(O)c1ccc(-c2coc3ncc(-c4ccccc4)cc23)cc1Cl [SGC-CAMKK2-1N (UNC-YL-83)]
- remaining binding at 1 µM [19]: 77%
- remaining binding at 1 µM [20]: 92%
- remaining binding at 1 µM [21]: 100%
- remaining binding at 1 µM [22]: 83%
- remaining binding at 1 µM [23]: 100%
- remaining binding at 1 µM [24]: 100%
- remaining binding at 1 µM [25]: 79%
- remaining binding at 1 µM [26]: 100%
- remaining binding at 1 µM [27]: 74%
- remaining binding at 1 µM [28]: 49%
- remaining binding at 1 µM [29]: 98%
- remaining binding at 1 µM [30]: 100%
- remaining binding at 1 µM [31]: 70%
- remaining binding at 1 µM [32]: 42%
